According to ChEMBL document CHEMBL3639075, “Aryl-benzocycloalkyl amide derivatives” (2013):

How the values were obtained:
B1 bradykinin receptor [1] = target: T1, B1 bradykinin receptor (Homo sapiens, UniProt P46663); test: Calcium Mobilization Assay: Calcium mobilization assay using Bradykinin-1 receptor.; assay type: functional
T1 sequence (P46663 whole entry): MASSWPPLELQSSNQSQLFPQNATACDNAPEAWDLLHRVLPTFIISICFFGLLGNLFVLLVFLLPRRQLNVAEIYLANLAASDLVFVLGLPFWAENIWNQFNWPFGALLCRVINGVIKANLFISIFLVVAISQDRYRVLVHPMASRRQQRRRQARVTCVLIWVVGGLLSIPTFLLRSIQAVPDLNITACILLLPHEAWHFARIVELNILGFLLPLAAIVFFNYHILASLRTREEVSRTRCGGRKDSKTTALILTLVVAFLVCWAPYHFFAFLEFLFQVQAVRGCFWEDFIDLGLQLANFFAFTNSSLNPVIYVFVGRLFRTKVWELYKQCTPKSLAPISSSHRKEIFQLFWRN

B1 bradykinin receptor [2] = target: T1, B1 bradykinin receptor; test: Binding Assay: Binding assay using Bradykinin-1 receptor.

IC50 (B1 bradykinin receptor [1]): 3.4 nM
Ki (B1 bradykinin receptor [2]): 9.5 nM
SMILES: Cc1nc(-c2c(F)cc(Cl)cc2-c2ccc3c(c2)CC[C@@H]3NC(=O)C2(NC(=O)c3nnc(C)o3)CC2)no1
